Measurements from PubChem BioAssay (NCI).
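All cell lines were grown in 96-well plates and treated with compound for 48 hours. TGI denotes the concentration required for complete inhibition of growth.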

How the values were obtained:
Assay in all cases: NCI tumour cell line growth inhibition, 48 h
[1] = tested on: SW-620 colon
[2] = tested on: UO-31 renal
[3] = tested on: MOLT-4 leukemia
[4] = tested on: DMS 114 small cell lung
[5] = tested on: UACC-257 melanoma
[6] = tested on: ACHN renal
[7] = tested on: RXF-631 renal
[8] = tested on: A498 renal
[9] = tested on: SN12C renal
[10] = tested on: OVCAR-5 ovarian
[11] = tested on: KM12 colon
[12] = tested on: IGROV1 ovarian
[13] = tested on: HCT-116 colon
[14] = tested on: KM20L2 colon
[15] = tested on: SF-539 CNS
[16] = tested on: HOP-92 NSCLC
[17] = tested on: HL-60(TB) leukemia
[18] = tested on: CAKI-1 renal
[19] = tested on: HOP-18 NSCLC
[20] = tested on: SK-OV-3 ovarian
[21] = tested on: UACC-62 melanoma
[22] = tested on: SK-MEL-2 melanoma
[23] = tested on: OVCAR-8 ovarian
[24] = tested on: SR leukemia
[25] = tested on: SNB-78 CNS
[26] = tested on: EKVX NSCLC
[27] = tested on: NCI-H226 lung
[28] = tested on: HT29 colon
[29] = tested on: NCI-H460 lung
[30] = tested on: OVCAR-3 ovarian
[31] = tested on: SK-MEL-5 melanoma
[32] = tested on: NCI-H23 lung
[33] = tested on: HCC-2998 colon
[34] = tested on: MALME-3M melanoma
[35] = tested on: SNB-19 CNS
[36] = tested on: SNB-75 CNS
[37] = tested on: M19-MEL melanoma
[38] = tested on: SF-268 CNS
[39] = tested on: DMS 273 small cell lung
[40] = tested on: K-562 leukemia
[41] = tested on: U251 CNS
[42] = tested on: DLD-1 colon
[43] = tested on: SK-MEL-28 melanoma
[44] = tested on: LOX IMVI melanoma
[45] = tested on: NCI-H522 lung
[46] = tested on: COLO 205 colon
[47] = tested on: OVCAR-4 ovarian
[48] = tested on: A549 NSCLC
[49] = tested on: M14 melanoma
[50] = tested on: CCRF-CEM leukemia
[51] = tested on: HCT-15 colon
[52] = tested on: LXFL 529 NSCLC
[53] = tested on: TK-10 renal
[54] = tested on: SF-295 CNS
[55] = tested on: 786-0 renal
[56] = tested on: RXF 393 renal
[57] = tested on: RPMI-8226 leukemia
[58] = tested on: HOP-62 NSCLC

COC(=O)C1CC2c3c(c4ccccc4n3C)CC(C1=O)N2C (stereo unspecified)
TGI [1]: > 100 µM | TGI [2]: 69 µM | TGI [3]: > 100 µM | TGI [4]: 60.7 µM | TGI [5]: > 100 µM | TGI [6]: > 100 µM | TGI [7]: > 100 µM | TGI [8]: > 100 µM | TGI [9]: > 100 µM | TGI [10]: > 100 µM | TGI [11]: > 100 µM | TGI [12]: > 100 µM | TGI [13]: 92.8 µM | TGI [14]: > 100 µM | TGI [15]: > 100 µM | TGI [16]: > 100 µM | TGI [17]: 68.5 µM | TGI [18]: > 100 µM | TGI [19]: > 100 µM | TGI [20]: > 100 µM | TGI [21]: > 100 µM | TGI [22]: > 100 µM | TGI [23]: > 100 µM | TGI [24]: 87.6 µM | TGI [25]: > 100 µM | TGI [26]: > 100 µM | TGI [27]: > 100 µM | TGI [28]: > 100 µM | TGI [29]: > 100 µM | TGI [30]: > 100 µM | TGI [31]: > 100 µM | TGI [32]: > 100 µM | TGI [33]: > 100 µM | TGI [34]: > 100 µM | TGI [35]: > 100 µM | TGI [36]: > 100 µM | TGI [37]: > 100 µM | TGI [38]: > 100 µM | TGI [39]: 43.6 µM | TGI [40]: > 100 µM | TGI [41]: > 100 µM | TGI [42]: > 100 µM | TGI [43]: > 100 µM | TGI [44]: > 100 µM | TGI [45]: 34.8 µM | TGI [46]: 32.5 µM | TGI [47]: > 100 µM | TGI [48]: > 100 µM | TGI [49]: > 100 µM | TGI [50]: > 100 µM | TGI [51]: 50.7 µM | TGI [52]: > 100 µM | TGI [53]: > 100 µM | TGI [54]: > 100 µM | TGI [55]: > 100 µM

Cn1ccnc1CCc1ccc(Cl)cc1Cl
TGI [1]: > 100 µM | TGI [2]: > 100 µM | TGI [3]: > 100 µM | TGI [4]: > 100 µM | TGI [5]: > 100 µM | TGI [6]: > 100 µM | TGI [7]: > 100 µM | TGI [8]: > 100 µM | TGI [9]: > 100 µM | TGI [10]: > 100 µM | TGI [11]: > 100 µM | TGI [12]: > 100 µM | TGI [13]: > 100 µM | TGI [14]: > 100 µM | TGI [15]: > 100 µM | TGI [16]: > 100 µM | TGI [17]: > 100 µM | TGI [18]: > 100 µM | TGI [19]: > 100 µM | TGI [20]: > 100 µM | TGI [21]: > 100 µM | TGI [22]: > 100 µM | TGI [23]: > 100 µM | TGI [56]: > 100 µM | TGI [25]: > 100 µM | TGI [26]: > 100 µM | TGI [27]: > 100 µM | TGI [28]: > 100 µM | TGI [29]: > 100 µM | TGI [30]: > 100 µM | TGI [32]: > 100 µM | TGI [33]: > 100 µM | TGI [34]: > 100 µM | TGI [35]: > 100 µM | TGI [36]: > 100 µM | TGI [37]: > 100 µM | TGI [38]: > 100 µM | TGI [39]: > 100 µM | TGI [40]: > 100 µM | TGI [41]: > 100 µM | TGI [42]: > 100 µM | TGI [43]: > 100 µM | TGI [44]: > 100 µM | TGI [45]: > 100 µM | TGI [46]: > 100 µM | TGI [57]: > 100 µM | TGI [47]: > 100 µM | TGI [48]: > 100 µM | TGI [49]: > 100 µM | TGI [50]: > 100 µM | TGI [51]: > 100 µM | TGI [58]: > 100 µM | TGI [52]: > 100 µM | TGI [53]: > 100 µM | TGI [54]: > 100 µM | TGI [55]: > 100 µM
